Reference: patent US4201866A, “O-Hemi-succinate of propranolol” (American Home Products Corporation, priority 1977, dated 1980)
Where “and” joins values, the source holds several entries; their conditions need not be identical. Equal values may be shown once. Where a name gives a salt, the structure may show the parent alone. Read-outs that look alike come from different tables or passages of the source.

Columns and labels:
Format in all cases: in vivo, beagle dogs
[1] = Intravenous propranolol-o-hemi-succinate hydrochloride; plasma levels of unchanged ester and free propranolol (Example 5)
Experimental: (§1) Four beagle dogs were administered propranolol-o-hemi-succinate hydrochloride either intravenously or orally. The dogs were divided into two groups of two, each group receiving each dosing regimen according to a crossover design. The oral doses consisted of 107 mg of propranolol-o-hemi-succinate hydrochloride (equivalent to 80 mg propranolol HCl) and the intravenous doses consisted of 26.7 mg of propranolol-o-hemi-succinate hydrochloride (equivalent to 20 mg propranolol HCl). Blood samples were collected at regular intervals after dosing and plasma was analyzed for free propranolol and unchanged propranolol-o-hemi-succinate hydrochloride.
(§2) Plasma was analyzed for propranolol-o-hemi-succinate hydrochloride by a TLC fluorometric procedure. Two ml samples were mixed with 2 ml of pH 4 buffer and extracted with 40 ml of methylene chloride. A 30 ml aliquot from the organic phase was evaporated to dryness and the residue was dissolved in 100 μl of ethanol. Twenty-five μl aliquots were spotted on TLC plates of silica gel along with standard solutions of propranolol-o-hemi-succinate hydrochloride. The plates were developed in saturated tank containing the solvent system: isopropyl alcohol (55 ml), benzene (40 ml), water (5 ml), formic acid (3 ml). After developement, the plates were dried and sprayed with a 50% solution of propylene glycol in water. They were read in the fluorescence mode of a Schoeffel spectrodensitometer. The limit of reliable quantitation was 25 ng per ml of plasma.

[2] = Oral propranolol-o-hemi-succinate hydrochloride; plasma levels of unchanged ester and free propranolol (Example 5)
Experimental: as §1, §2

[3] = Intravenous administration of propranolol HCl and propranolol-o-hemi-succinate HCl; plasma levels of free propranolol (Example 3)
Experimental: (§3) Plasma was analyzed for free propranolol by a TLC fluorometric procedure. Two ml samples were mixed with 2 ml of pH 10 buffer and extracted with 25 ml of ethyl ether. A 20 ml aliquot from the ether phase was evaporated to dryness and the dry residue was dissolved in 100 μl of ethanol. Twenty-five μl aliquots were spotted on TLC plates of silica gel along with standard solutions of propranolol. The plates were developed in a saturated tank containing the solvent system methanol (100 ml): concentrated NH4 OH (0.4 ml). After development, the plates were dried and sprayed with a 50% solution of propylene glycol in water. They were then read in the fluorescence mode of a Schoeffel spectrodensitometer. The limit of reliable quantitation was 2 ng. of propranolol per ml of plasma.
In this experiment, the same four dogs used in Example 2 were administered a 20 mg intravenous dose of propranolol HCl on one experimental day and an equivalent dose of the o-hemi-succinate on a second day. A period of one week elapsed between each administration. Blood samples were collected and analyzed as above.

[4] = Oral administration of a reduced dose of propranolol-o-hemi-succinate hydrochloride; plasma levels of free propranolol (Example 4)
Experimental: Two beagle dogs were given an oral dose of 13.4 mg of propranolol-O-hemi-succinate hydrochloride (equivalent to 10 mg. propranolol HCl). Blood samples were obtained at regular intervals after drug administration and plasma analyzed for free propranolol. Plasma levels of free propranolol were compared to those obtained following administration of 80 mg dose of propranolol HCl.

[5] = Oral administration of propranolol-o-hemi-succinate HCl and propranolol HCl; plasma levels of free propranolol (Example 2)
Experimental: In this experiment, four beagle dogs were given an 80 mg. oral dose of propranolol HCl or an equivalent dose of the o-hemi-succinate. The animals were divided into two groups of two, each group receiving the drugs according to a crossover design. The crossover experiment was repeated twice. A period of at least one week elapsed between each dosing day. Blood samples were obtained at regular intervals after dosing a plasma was analyzed for free propranolol concentrations.
as §3

[6] = 80 mg propranolol HCl or equivalent

- Plasma level of unchanged propranolol-o-hemi-succinate HCl ([1]; 0 h, i.v. 26.7 mg, individual dogs, in ng/mL): 0
- Plasma level of unchanged propranolol-o-hemi-succinate HCl ([1]; 1/2 hr, i.v. 26.7 mg, individual dogs, 30 min, Hydrochloride): 692 ng/mL and 1130 ng/mL and 811 ng/mL and 487 ng/mL
- Plasma level of unchanged propranolol-o-hemi-succinate HCl ([1]; 5 min, i.v. 26.7 mg, individual dogs, Hydrochloride): 2770 ng/mL and 2540 ng/mL and 1430 ng/mL
- Plasma level of unchanged propranolol-o-hemi-succinate HCl ([1]; 10 min, i.v. 26.7 mg, individual dogs, Hydrochloride): 1590 ng/mL and 2350 ng/mL and 1780 ng/mL and 946 ng/mL
- Plasma level of unchanged propranolol-o-hemi-succinate HCl ([1]; 15 min, i.v. 26.7 mg, individual dogs, Hydrochloride): 1210 ng/mL and 1760 ng/mL and 1340 ng/mL and 819 ng/mL
- Plasma level of unchanged propranolol-o-hemi-succinate HCl ([1]; 1 hr, i.v. 26.7 mg, individual dogs, Hydrochloride, 60 min): 366 ng/mL and 198 ng/mL
- Plasma level of unchanged propranolol-o-hemi-succinate HCl ([1]; 2 hrs, i.v. 26.7 mg, individual dogs, Hydrochloride, 120 min): 91 ng/mL and 76 ng/mL and 132 ng/mL and 30 ng/mL
- Plasma level of unchanged propranolol-o-hemi-succinate HCl ([1]; 4 hrs, i.v. 26.7 mg, individual dogs, * = estimate only, below level of reliable quantitation, Hydrochloride): Trace
- Plasma level of unchanged propranolol-o-hemi-succinate HCl ([1]; 6 hrs, i.v. 26.7 mg, individual dogs): Trace
- Mean plasma level of unchanged propranolol-o-hemi-succinate HCl ([1]; 6 hrs, i.v. 26.7 mg, mean): Trace
- half-life of free propranolol ([1]; after i.v. succinate ester): two
- half-life ([1]; dog, plasma, 26.7 mg, following intravenous dosing, read-out: t 1/2 of disappearance of propranolol-o-hemi-succinate hydrochloride): 30 min
- concentration at 0.5 h ([1]; dog, plasma, iv, 26.7 mg, 1/2 hr, i.v. 26.7 mg, mean, read-out: Mean plasma level of unchanged propranolol-o-hemi-succinate HCl): 781 ng/mL
- concentration at 5 min ([1]; dog, plasma, iv, 26.7 mg, 5 min, i.v. 26.7 mg, individual dogs, read-out: Plasma level of unchanged propranolol-o-hemi-succinate HCl): 2200 ng/mL
- concentration at 5 min ([1]; dog, plasma, iv, 26.7 mg, 5 min, i.v. 26.7 mg, mean, read-out: Mean plasma level of unchanged propranolol-o-hemi-succinate HCl): 2240 ng/mL
- concentration at 10 min ([1]; dog, plasma, iv, 26.7 mg, 10 min, i.v. 26.7 mg, mean, read-out: Mean plasma level of unchanged propranolol-o-hemi-succinate HCl): 1670 ng/mL
- concentration at 0.25 h ([1]; dog, plasma, iv, 26.7 mg, 15 min, i.v. 26.7 mg, mean, read-out: Mean plasma level of unchanged propranolol-o-hemi-succinate HCl): 1280 ng/mL
- concentration at 1 h ([1]; dog, plasma, iv, 26.7 mg, 1 hr, i.v. 26.7 mg, individual dogs, read-out: Plasma level of unchanged propranolol-o-hemi-succinate HCl): 287 ng/mL
- concentration at 1 h ([1]; dog, plasma, iv, 26.7 mg, 1 hr, i.v. 26.7 mg, mean, read-out: Mean plasma level of unchanged propranolol-o-hemi-succinate HCl): 284 ng/mL
- concentration at 2 h ([1]; dog, plasma, iv, 26.7 mg, 2 hrs, i.v. 26.7 mg, mean, read-out: Mean plasma level of unchanged propranolol-o-hemi-succinate HCl): 82 ng/mL
- concentration at 4 h ([1]; dog, plasma, iv, 26.7 mg, 4 hrs, i.v. 26.7 mg, individual dogs, * = estimate only, below level of reliable quantitation, read-out: Plasma level of unchanged propranolol-o-hemi-succinate HCl): ~15 ng/mL
- concentration at 4 h ([1]; dog, plasma, iv, 26.7 mg, 4 hrs, i.v. 26.7 mg, mean, * = estimate only, below level of reliable quantitation, read-out: Mean plasma level of unchanged propranolol-o-hemi-succinate HCl): ~4 ng/mL
- AUC(0-t) at 6 h ([1]; dog, plasma, iv, 26.7 mg, i.v. 26.7 mg, mean, read-out: Mean AUC 0-6 hr of unchanged propranolol-o-hemi-succinate HCl): 1230 ng·h/mL
- AUC 0-6 hr of unchanged propranolol-o-hemi-succinate HCl ([1]; i.v. 26.7 mg, individual dogs, Hydrochloride, 360 min): 1160 ng·h/mL and 1530 ng·h/mL and 1520 ng·h/mL and 711 ng·h/mL
- Mean plasma level of unchanged propranolol-o-hemi-succinate HCl ([1]; i.v. 26.7 mg, mean): 0
- ester left 4 hours after administration ([1]; i.v., 4 hours): virtually none
- plasma levels of free propranolol 6 hours after administration of the succinate ester ([1]; i.v., 6 hours): significant plasma levels still existed
- Plasma level of unchanged propranolol-o-hemi-succinate HCl ([2]; 0 h, oral 107 mg, individual dogs, in ng/mL): 0
- Mean plasma level of unchanged propranolol-o-hemi-succinate HCl ([2]; 0 h, oral 107 mg, mean): 0
- Plasma level of unchanged propranolol-o-hemi-succinate HCl ([2]; 1 hr, oral 107 mg, individual dogs, Hydrochloride, 60 min): 2950 ng/mL and 1900 ng/mL and 3240 ng/mL and 1320 ng/mL
- Plasma level of unchanged propranolol-o-hemi-succinate HCl ([2]; 2 hrs, oral 107 mg, individual dogs, Hydrochloride, 120 min): 715 ng/mL and 390 ng/mL and 486 ng/mL and 268 ng/mL
- Plasma level of unchanged propranolol-o-hemi-succinate HCl ([2]; 6 hrs, oral 107 mg, individual dogs, * = estimate only, below level of reliable quantitation, Hydrochloride): 0 ng/mL
- Plasma level of unchanged propranolol-o-hemi-succinate HCl ([2]; 6 hrs, oral 107 mg, individual dogs, * = estimate only, below level of reliable quantitation, Hydrochloride, 360 min): 20 ng/mL and 13 ng/mL and 8 ng/mL
- concentration at 0.5 h ([2]; dog, plasma, po, 107 mg, 1/2 hr, mean, read-out: Mean plasma level of unchanged propranolol-o-hemi-succinate HCl): 1760 ng/mL
- concentration at 1 h ([2]; dog, plasma, po, 107 mg, 1 hr, mean, read-out: Mean plasma level of unchanged propranolol-o-hemi-succinate HCl): 2350 ng/mL
- concentration at 2 h ([2]; dog, plasma, po, 107 mg, 2 hrs, mean, read-out: Mean plasma level of unchanged propranolol-o-hemi-succinate HCl): 465 ng/mL
- concentration at 4 h ([2]; dog, plasma, po, 107 mg, 4 hrs, mean, read-out: Mean plasma level of unchanged propranolol-o-hemi-succinate HCl): 62 ng/mL
- concentration at 6 h ([2]; dog, plasma, po, 107 mg, 6 hrs, mean, * = estimate only, below level of reliable quantitation, read-out: Mean plasma level of unchanged propranolol-o-hemi-succinate HCl): ~10 ng/mL
- AUC(0-t) at 6 h ([2]; dog, plasma, po, 107 mg, mean, read-out: Mean AUC 0-6 Hrs. of unchanged propranolol-o-hemi-succinate HCl): 3470 ng·h/mL
- Plasma levels of free propranolol compared with propranolol i.v. ([3]; equivalent dose): lower
- Conversion of the propranolol ester to propranolol ([3]; i.v.): very fast
- levels of propranolol found 5 minutes after administration ([3]; i.v., 5 minutes): high levels
- Plasma level of free propranolol ([4]; 6 hours after dosing, 80 mg propranolol HCl or 13.4 mg hemi-succinate HCl, individual dogs, Hydrochloride): Trace
- levels of free propranolol at a dose 1/8 that of propranolol HCl ([4]; dogs, vs propranolol HCl, only two dogs): comparable levels
- Absorption of the succinate and its conversion to propranolol [5]: rapid
- plasma levels of free propranolol relative to equivalent dose of propranolol hydrochloride [5]: eight times higher
- C.V. of overall mean AUC 0-6 hr [5, 6]: 41%
- s.d. of overall mean AUC 0-6 hr [5, 6]: 445 ng·h/mL
- Plasma level of propranolol following oral administration, compared with propranolol hydrochloride ([5]; equivalent dose): considerably higher
- reduction of fluctuation in plasma levels following the pro-drug, as revealed by AUC values ([5]; vs propranolol hydrochloride): 35%
SMILES: CC(C)NCC(COc1cccc2ccccc12)OC(=O)CCC(=O)O (stereo not drawn) [propranolol-o-hemi-succinate HCl, Butanedioic Acid Monol[[2-(1-Methylethyl] Amino] -1-[(1-Naphthalenyloxy) Methyl] Ethyl] Ester Hydrochloride]
- AUC 0-6 Hrs. of unchanged propranolol-o-hemi-succinate HCl ([2]; oral 107 mg, individual dogs, Hydrochloride, 360 min): 3590 ng·h/mL and 3366 ng·h/mL and 4818 ng·h/mL and 2121 ng·h/mL
